Patent US20260053764A1, “COMPOSITION FOR PREVENTING DETERIORATION IN COGNITIVE FUNCTION AND/OR IMPROVING COGNITIVE FUNCTION” (PHARMA FOODS INTERNATIONAL CO., LTD., priority 2020, published 2026)

System: health-associated QOL in a human
Test: SF-36 health-associated QOL assessment in clinical tests A and B
Format: in vivo
Set-up: key to General health / Vitality / Mental health: SF-36 subscale score; higher score = better health state
Conditions: for Everyday role function (mental) / Everyday role function (physical) / General health / Mental health / Physical function / Vitality: mean ± SD
Description: SF-36 is known as a QOL assessment method associated with health, wherein SF-36 (MOS 36-Item Short-Form Health Survey) is a self-report type health state questionnaire that can rate eight health concepts (physical function, everyday role function (physical), body pain, general health, vitality, social function, everyday role function (mental) and mental health) as scores. A high score of each health concept (subscale) in SF-36 is interpreted as shown below. • Physical function . . . Capable of carrying out every type of activity including vigorous activity. • Everyday role function (physical) . . . There was no physical problem when carrying out work or normal activity during the past month. • Body pain . . . There was no body pain at all during the past month and usual work was not interfered by body pain at all. • General health . . . Health state is very good. • Vitality . . . Always full of energy during the past month. • Social life function . . . The usual social interactions with family, friends, neighbors and other companions were not at all interfered by any physical or psychological reason. • Everyday role function (mental) . . . There was no psychological problem when carrying out work or normal activity during the past month. • Mental health . . . The subject was in a calm, happy and peaceful mood during the past month.
Two types of placebo-controlled randomized double-blind two-group parallel comparison tests were carried out as clinical tests. […] Specifically, capsules comprising 100 mg of dextrin per capsule were used as the placebo food.
The screening examination was carried out to select 60 subjects for each test (a total of 120 subjects). MMSE (Mini Mental State Examination) is an examination for assessing the degree of progression of dementia or the like based on the score thereof with 30 as the perfect score, wherein dementia is suspected with a score of 23 or lower.
The total of 120 subjects were randomly divided into test A active group, test A placebo group, test B active group and test B placebo group with 30 subjects in each group. Each subject of the test A active group ingested two capsules of the active food, each subject of the test A placebo group ingested two capsules of the placebo food, each subject of the test B active group ingested one capsule of the active food and each subject of the test B placebo group ingested one capsule of the placebo food.
Each subject followed the schedule shown in the table below and ingested one or two of the assigned capsules together with water for 12 weeks from two weeks after the initial screening examination. All subjects had no particular instruction during the ingestion period and freely took their meals.
In addition, SF-36 was practiced as health-associated QOL assessment. Regarding SF-36, examination was carried out a total of four times, which are before starting test food ingestion, after four weeks of ingestion, after eight weeks of ingestion and after twelve weeks of ingestion.

[1] = test A 200 mg, before ingestion
[2] = test B 100 mg, before ingestion

Compound: NCCCC(=O)O [GABA, γ-aminobutyric acid]
- Body pain: difference between active food and placebo food groups (test A 200 mg, 4 W): −2.1
- Everyday role function (mental): difference between active food and placebo food groups (test A 200 mg, 4 W): 1.9
- Everyday role function (physical): difference between active food and placebo food groups (test A 200 mg, 4 W): 2.8
- General health: difference between active food and placebo food groups (test A 200 mg, 4 W): 0.1
- Mental health: difference between active food and placebo food groups (test A 200 mg, 4 W): 3.6
- Physical function: difference between active food and placebo food groups (test A 200 mg, 4 W): 0.4
- Social life function: difference between active food and placebo food groups (test A 200 mg, 4 W): 1.1
- Vitality: difference between active food and placebo food groups (test A 200 mg, 4 W): 5.5
- Everyday role function (mental) (test A 200 mg, 4 w): 53.4 ± 6.0
- Everyday role function (physical) (test A 200 mg, 4 w): 54.3 ± 3.5
- General health (test A 200 mg, 4 w): 57.2 ± 7.9
- Mental health (test A 200 mg, 4 w): 56.0 ± 6.7
- Physical function (test A 200 mg, 4 w): 53.8 ± 6.2
- Vitality (test A 200 mg, 4 w): 56.1 ± 7.3
- Body pain: difference between active food and placebo food groups (test A 200 mg, 8 W): −2.9
- Everyday role function (mental): difference between active food and placebo food groups (test A 200 mg, 8 W): 1.1
- Everyday role function (physical): difference between active food and placebo food groups (test A 200 mg, 8 W): 3.3
- General health: difference between active food and placebo food groups (test A 200 mg, 8 W): 2.5
- Mental health: difference between active food and placebo food groups (test A 200 mg, 8 W): 3.5
- Physical function: difference between active food and placebo food groups (test A 200 mg, 8 W): −0.7
- Social life function: difference between active food and placebo food groups (test A 200 mg, 8 W): 0.9
- Vitality: difference between active food and placebo food groups (test A 200 mg, 8 W): 4.8
- Everyday role function (mental) (test A 200 mg, 8 w): 52.7 ± 5.7
- Everyday role function (physical) (test A 200 mg, 8 w): 53.8 ± 4.0
- General health (test A 200 mg, 8 w): 58.4 ± 7.4
- Mental health (test A 200 mg, 8 w): 56.3 ± 7.3
- Physical function (test A 200 mg, 8 w): 53.8 ± 6.1
- Vitality (test A 200 mg, 8 w): 55.6 ± 8.3
- Body pain: difference between active food and placebo food groups (test A 200 mg, 12 W): −0.3
- Everyday role function (mental): difference between active food and placebo food groups (test A 200 mg, 12 W): 1.5
- Everyday role function (physical): difference between active food and placebo food groups (test A 200 mg, 12 W): 2.1
- General health: difference between active food and placebo food groups (test A 200 mg, 12 W): 0.2
- Mental health: difference between active food and placebo food groups (test A 200 mg, 12 W): 3.5
- Physical function: difference between active food and placebo food groups (test A 200 mg, 12 W): −1.0
- Social life function: difference between active food and placebo food groups (test A 200 mg, 12 W): −1.1
- Vitality: difference between active food and placebo food groups (test A 200 mg, 12 W): 5.4
- Everyday role function (mental) (test A 200 mg, 12 w): 53.7 ± 5.4
- Everyday role function (physical) (test A 200 mg, 12 w): 54.2 ± 4.2
- General health (test A 200 mg, 12 w): 58.4 ± 6.5
- Mental health (test A 200 mg, 12 w): 57.0 ± 5.9
- Physical function (test A 200 mg, 12 w): 53.6 ± 7.2
- Vitality (test A 200 mg, 12 w): 57.1 ± 6.7
- Body pain: difference between active food and placebo food groups [1]: −0.7
- Everyday role function (mental): difference between active food and placebo food groups [1]: −0.1
- Everyday role function (physical): difference between active food and placebo food groups [1]: 1.3
- General health: difference between active food and placebo food groups [1]: 0.0
- Mental health: difference between active food and placebo food groups [1]: 0.3
- Physical function: difference between active food and placebo food groups [1]: 0.5
- Social life function: difference between active food and placebo food groups [1]: 2.1
- Vitality: difference between active food and placebo food groups [1]: 2.9
- Everyday role function (mental) [1]: 52.6 ± 6.3
- Everyday role function (physical) [1]: 54.2 ± 4.3
- General health [1]: 57.4 ± 7.4
- Mental health [1]: 54.1 ± 8.4
- Physical function [1]: 53.0 ± 6.1
- Vitality [1]: 54.6 ± 7.6
- scores regarding everyday role function (physical), GABA group compared to the placebo group (test A, after eight weeks of ingestion): significant improvement
- scores regarding emotional health, GABA group compared to the placebo group (test A, after four weeks of ingestion): significant improvement
- scores regarding energy, GABA group compared to the placebo group (test A, at least after four weeks of ingestion): significant improvement
- Body pain: difference between active food and placebo food groups (test B 100 mg, 4 W): −0.3
- Everyday role function (mental): difference between active food and placebo food groups (test B 100 mg, 4 W): 1.5
- Everyday role function (physical): difference between active food and placebo food groups (test B 100 mg, 4 W): 2.3
- General health: difference between active food and placebo food groups (test B 100 mg, 4 W): 1.2
- Mental health: difference between active food and placebo food groups (test B 100 mg, 4 W): 3.3
- Physical function: difference between active food and placebo food groups (test B 100 mg, 4 W): 1.8
- Social life function: difference between active food and placebo food groups (test B 100 mg, 4 W): 0.9
- Vitality: difference between active food and placebo food groups (test B 100 mg, 4 W): 3.0
- Everyday role function (mental) (test B 100 mg, 4 w): 53.0 ± 5.5
- Everyday role function (physical) (test B 100 mg, 4 w): 53.8 ± 4.2
- General health (test B 100 mg, 4 w): 58.3 ± 7.4
- Mental health (test B 100 mg, 4 w): 55.8 ± 5.8
- Physical function (test B 100 mg, 4 w): 55.2 ± 3.7
- Vitality (test B 100 mg, 4 w): 53.7 ± 7.6
- Body pain: difference between active food and placebo food groups (test B 100 mg, 8 W): 0.9
- Everyday role function (mental): difference between active food and placebo food groups (test B 100 mg, 8 W): 2.1
- Everyday role function (physical): difference between active food and placebo food groups (test B 100 mg, 8 W): 3.4
- General health: difference between active food and placebo food groups (test B 100 mg, 8 W): 1.2
- Mental health: difference between active food and placebo food groups (test B 100 mg, 8 W): 3.3
- Physical function: difference between active food and placebo food groups (test B 100 mg, 8 W): 2.2
- Social life function: difference between active food and placebo food groups (test B 100 mg, 8 W): 3.2
- Vitality: difference between active food and placebo food groups (test B 100 mg, 8 W): 4.0
- Everyday role function (mental) (test B 100 mg, 8 w): 53.7 ± 3.9
- Everyday role function (physical) (test B 100 mg, 8 w): 53.9 ± 3.5
- General health (test B 100 mg, 8 w): 57.2 ± 7.5
- Mental health (test B 100 mg, 8 w): 56.1 ± 5.8
- Physical function (test B 100 mg, 8 w): 56.6 ± 2.4
- Vitality (test B 100 mg, 8 w): 54.8 ± 7.2
- Body pain: difference between active food and placebo food groups (test B 100 mg, 12 W): 1.8
- Everyday role function (mental): difference between active food and placebo food groups (test B 100 mg, 12 W): 1.7
- Everyday role function (physical): difference between active food and placebo food groups (test B 100 mg, 12 W): 1.0
- General health: difference between active food and placebo food groups (test B 100 mg, 12 W): 1.0
- Mental health: difference between active food and placebo food groups (test B 100 mg, 12 W): 2.9
- Physical function: difference between active food and placebo food groups (test B 100 mg, 12 W): 1.3
- Social life function: difference between active food and placebo food groups (test B 100 mg, 12 W): 0.6
- Vitality: difference between active food and placebo food groups (test B 100 mg, 12 W): 2.8
- Everyday role function (mental) (test B 100 mg, 12 w): 53.9 ± 4.3
- Everyday role function (physical) (test B 100 mg, 12 w): 53.1 ± 4.2
- General health (test B 100 mg, 12 w): 59.2 ± 6.2
- Mental health (test B 100 mg, 12 w): 56.4 ± 5.6
- Physical function (test B 100 mg, 12 w): 55.9 ± 3.1
- Vitality (test B 100 mg, 12 w): 54.5 ± 7.4
- Body pain: difference between active food and placebo food groups [2]: 1.3
- Everyday role function (mental): difference between active food and placebo food groups [2]: 1.0
- Everyday role function (physical): difference between active food and placebo food groups [2]: 0.7
- General health: difference between active food and placebo food groups [2]: 0.1
- Mental health: difference between active food and placebo food groups [2]: 2.7
- Physical function: difference between active food and placebo food groups [2]: 3.0
- Social life function: difference between active food and placebo food groups [2]: 3.7
- Vitality: difference between active food and placebo food groups [2]: 2.7
- Everyday role function (mental) [2]: 53.7 ± 4.7
- Everyday role function (physical) [2]: 53.5 ± 3.9
- General health [2]: 57.5 ± 7.1
- Mental health [2]: 56.5 ± 5.4
- Physical function [2]: 55.6 ± 3.5
- Vitality [2]: 54.4 ± 7.6
- scores regarding physical function, GABA group compared to the placebo group (test B, after eight weeks of ingestion): significant improvement
